Measurements published in patent US8734853B2, “HDL particles for delivery of nucleic acids” (University of North Texas Health Science Center at Fort …, priority 2008, dated 2014).

How the values were obtained:
HCT116 = HCT116 model, compared to controls
[1] = test system: tumor associated angiogenesis; assay: CD31 staining, microvessel density (MVD) of tumor samples; conditions: compared with control siRNA/rHDL treatment
Protocol: Paraffin sections for CD31 (1:800 dilution, Pharmingen), were stained at 4° C. […] To quantify MVD, five random 0.159 mm2 fields at 100× magnification for each tumor were examined, and microvessels within those fields were counted (Thaker et al., 2005).
In order to ascertain the effects of STAT3 silencing on tumor associated angiogenesis, CD 31 staining on fresh frozen tumor samples from all four treatment groups (FIG. 7) was determined along with microvessel density (MVD).

SKOV3ip1 [2] = assay: Orthotopic ovarian cancer mouse model (SKOV3ip1); format: in vivo, female athymic nude mice; conditions: compared to control group
Protocol: (§1) Orthotopic mouse model. The 10- to 12-week-old female athymic nude mice were obtained from the US National Cancer Institute. All experiments were approved by the Institutional Animal Care and Use Committee of the M.D. Anderson Cancer Center. […] Tumor cells for appropriate ovarian cancer mouse models (HeyA8, 2.5×105; SKOV3ip1 and […], 1.0×106) were injected intraperitoneally into mice on day 0. Mice randomized into appropriate groups on day 7 when tumors had been established and were palpable. After 3-5 weeks of treatment (depending on the model), mice were necropsied and tumors were harvested. Small interfering RNA (siRNA). Specific siRNAs targeted against Stat3-7 (target sequence [NT] ID NO:1), FAK (target Sequence [NT] ID NO:2) and control siRNA targeted against (target sequence:[NT] ID NO:3) were purchased from Sigma-Aldrich Corporation, (Woodland, Tex.). These were incorporated into r-HDL nanoparticles, as previously described (Mooberry et al., 2009). 5 ug of r-HDL incorporated siRNA was injected intraperitoneally twice weekly. For in vitro studies, mRNA-specific or nonspecific (control) siRNA was incorporated into Qiagen RNAiFect transfection agent (1 ug of siRNA to 3 uL of RNAiFect). […] Cells were first transfected with STAT3 siRNA. Twenty-four hours after transfection, media was changed to standard siRNA-free media and cells were treated with docetaxel (see below for details). […]

[3] = test system: SKOV3ip1 ovarian cancer cells; assay: Annexin-V PE/7AAD flow cytometry apoptosis assay; format: cell-based; conditions: docetaxel 4 nM, 48 hours after docetaxel treatment
Protocol: All in vitro experiments were conducted using 4.0 nM concentration of docetaxel in SKOV3ip1 ovarian cancer cells. These cells were treated with docetaxel after STAT3 gene was silenced using siRNA (as described above) for 48 hours.
Additionally, to determine the effects of in vitro STAT3 targeting on apoptosis, STAT3 gene was silenced in SKOV3ip1 ovarian cancer cells using an siRNA targeted against STAT3 and followed by treatment with docetaxel (4 nM). 48 hours after docetaxel treatment, the extent of cell death secondary to apoptosis was analyzed after Annexin-V PE/7AAD staining with flow cytometry.

SKOV3ip1 [4] = assay: TUNEL staining of tumor tissues from the SKOV3ip1 model; format: in vivo, female athymic nude mice; conditions: SKOV3ip1 model tumors, compared to control group
Protocol: TUNEL Staining. Assessment of apoptosis, frozen sections stained by terminal deoxynucleotidyl transferase-mediated deoxyuridine triphosphate nick-end labeling (TUNEL; green; Promega, Madison, Wis.), was performed as described previously (Shahzad et al., 2009). The samples were counterstained with Hoechst 1:10,000 (Thaker et al., 2005). An apoptotic body was represented by green fluorescence. To quantify apoptotic cells, the number of TUNEL positive cells was calculated in 10 random fields at the original magnification 200× from five separate slides (per group) and averaged.
STAT3 is known to increase cell survival and inhibit apoptosis (Shen et al., 2001; Catlett-Falcone et al., 1999; Zushi et al., 1998; Masude et al., 2002). To assess whether STAT3 knockdown would enhance the efficacy of docetaxel treatment by enhancing its ability to produce apoptosis., fluorescents labeled TUNEL staining was performed on fresh frozen tumor tissues from the SKOV3ip1 ovarian cancer treatment model.

HeyA8MDR = assay: Multi-drug resistant model of ovarian carcinoma (HeyA8MDR); format: in vivo, female athymic nude mice; conditions: compared to control siRNA/rHDL
Protocol: as §1

HeyA8 = assay: Orthotopic mouse model of ovarian carcinoma (HeyA8); format: in vivo, female athymic nude mice
Protocol: Orthotopic mouse model. The 10- to 12-week-old female athymic nude mice were obtained from the US National Cancer Institute. All experiments were approved by the Institutional Animal Care and Use Committee of the M.D. Anderson Cancer Center. […] Tumor cells for appropriate ovarian cancer mouse models (HeyA8, 2.5×105; SKOV3ip1 and […], 1.0×106) were injected intraperitoneally into mice on day 0. Mice randomized into appropriate groups on day 7 when tumors had been established and were palpable. After 3-5 weeks of treatment (depending on the model), mice were necropsied and tumors were harvested. Small interfering RNA (siRNA). Specific siRNAs targeted against Stat3-7 (target sequence [NT] ID NO:1), FAK (target Sequence [NT] ID NO:2) and control siRNA targeted against (target sequence:[NT] ID NO:3) were purchased from Sigma-Aldrich Corporation, (Woodland, Tex.). These were incorporated into r-HDL nanoparticles, as previously described (Mooberry et al., 2009). 5 ug of r-HDL incorporated siRNA was injected intraperitoneally twice weekly. For in vitro studies, mRNA-specific or nonspecific (control) siRNA was incorporated into Qiagen RNAiFect transfection agent (1 ug of siRNA to 3 uL of RNAiFect). […] Cells were first transfected with STAT3 siRNA. Twenty-four hours after transfection, media was changed to standard siRNA-free media and cells were treated with docetaxel (see below for details). Reagents. Docetaxel was purchased from Sanofi-Aventis (Bridgewater, N.J.). […] These cells were treated with docetaxel after STAT3 gene was silenced using siRNA (as described above) for 48 hours. In In vivo experiments, appropriate groups received treatment with docetaxel starting on day 7, once a week, intraperitoneally at: 50 ug/mouse (HeyA8 and HeyA8-MDR) and 30 ug/mouse (SKOV3). […] Statistics. Continuous variables were compared with the use of the Student t test (between 2 groups) or analysis of variance (for all groups) if normally distributed, and with the use of the Mann-Whitney rank sum test or Kruskal Wallis test (for all groups) if nonparametric. […]

SKOV3ip1 [5] = assay: Ki-67 staining (cell proliferation index) of tumors from SKOV3ip1 model; format: in vivo, female athymic nude mice; conditions: compared with control group
Description: Effect of STAT3 targeting on tumor microenvironment. […] The combination of STAT3 siRNA/rHDL and docetaxel reduced tumor cell proliferation by 48% (P<0.01) compared with control group (FIG. 7).

[6] = test system: SKOV3ip1 ovarian cancer cells; assay: MTT assay, docetaxel after STAT3 siRNA transfection; format: cell-based; conditions: SKOV3ip1 cells transfected with STAT3 siRNA, docetaxel in escalating doses, compared to docetaxel treatment
Protocol: Small interfering RNA (siRNA). Specific siRNAs targeted against Stat3—7 (target sequence 5′-[…]-3′; SEQ ID NO:1), FAK (target Sequence 5′-[…]-3′; SEQ ID NO:2) and control siRNA targeted against (target sequence:5′-[…]-3′; SEQ ID NO:3) were purchased from Sigma-Aldrich Corporation, (Woodland, Tex.). These were incorporated into r-HDL nanoparticles, as previously described (Mooberry et al., 2009). 5 ug of r-HDL incorporated siRNA was injected intraperitoneally twice weekly. For in vitro studies, mRNA-specific or nonspecific (control) siRNA was incorporated into Qiagen RNAiFect transfection agent (1 ug of siRNA to 3 uL of RNAiFect). Only 70% to 80% confluent SKOV3ip1 cells were utilized. Cells were first transfected with STAT3 siRNA. Twenty-four hours after transfection, media was changed to standard siRNA-free media and cells were treated with docetaxel (see below for details).
MTT assay. SKOV3 cell (1.5×105) cells were plated in each well, using 6 well plates. Cells were then transfected with control or STAT3 siRNA overnight. […] Forty-eight hours after docetaxel treatment, the number of viable cells was determined by adding 50 μL of 0.15% 3-(4,5-dimethylthiazol-2-yl)-2,5-diphenyl tetrazolium bromide (MTT; Sigma) to each well. […] Viable cells were quantified by measuring the absorbance at 570 nm using a uQuant plate reader (Bio-Tek, Winooski, Vt.). […]

Ovarian Tumor Cells = assay: Gene expression profile after STAT3 knockdown (Illumina microarray / quantitative RT-PCR); format: cell-based
Protocol: Effect of STAT3 Silencing on Gene Expression profile of Ovarian Tumor Cells. STAT3 knockdown using siRNA targeted against STAT3, microarray analysis using Illumina platform was performed There were 460 genes that were identified to have differential expression levels between the control and STAT3 targeted group. Data was then analyzed using ingenuity-pathway assistance and 32 genes that were involved in cell survival and apoptosis were chosen (Table 1).

[7] = STAT3 targeting study, compared to the control group

## O=C1[O][Pt]2([NH][C@@H]3CCCC[C@H]3[NH]2)[O]C1=O [oxaliplatin]
HCT116
  reduction in tumor growth: 55%

## CC(=O)O[C@@]12CO[C@@H]1C[C@H](O)[C@@]1(C)C(=O)[C@H](O)C3=C(C)[C@@H](OC(=O)[C@H](O)[C@@H](NC(=O)OC(C)(C)C)c4ccccc4)C[C@@](O)([C@@H](OC(=O)c4ccccc4)[C@H]21)C3(C)C [docetaxel]
[1]
  reduction in MVD (tumor associated vessel counts, CD31): 66%
SKOV3ip1 [2]
  reduction in tumor growth: 78%
[3]
  increase in apoptosis compared to control: 5.2 fold
SKOV3ip1 [4]
  increase in tumor cell apoptosis (TUNEL): 12 fold
HeyA8MDR
  reduction in tumor growth: 17%
HeyA8; FAK targeting study
  reduction in tumor growth: 74%
HeyA8; [7]
  reduction in tumor growth: 62%
  reduction in tumor metastasis: 77%
SKOV3ip1 [5]
  reduction in tumor cell proliferation (Ki-67): 30%

## STAT3 siRNA: siRNA against Stat3 (SEQ ID NO:1), transfected in vitro with Qiagen RNAiFect transfection agent (GCCUCUCUGCAGAAUUCAA; listed as RNA, chemistry not given here)
[3]
  increase in apoptosis compared to control: 3 fold
[6]
  effect of STAT3 silencing on IC 50 values of docetaxel: lowered the IC 50 values of docetaxel significantly
Ovarian Tumor Cells; gene ALOX5, Stat3 silencing vs control
  Fold Change: 1.43 fold
Ovarian Tumor Cells; gene ATF6, Stat3 silencing vs control
  Fold Change: 0.44 fold
Ovarian Tumor Cells; gene BAX, Stat3 silencing vs control
  Fold Change: 1.49 fold
Ovarian Tumor Cells; gene BCL6, Stat3 silencing vs control
  Fold Change: 0.72 fold
Ovarian Tumor Cells; gene BEX2, Stat3 silencing vs control
  Fold Change: 1.46 fold
Ovarian Tumor Cells; gene CAV1, Stat3 silencing vs control
  Fold Change: 0.75 fold
Ovarian Tumor Cells; gene CD24, Stat3 silencing vs control
  Fold Change: 0.73 fold
Ovarian Tumor Cells; gene CDCP1, Stat3 silencing vs control
  Fold Change: 0.73 fold
Ovarian Tumor Cells; gene CTGF, Stat3 silencing vs control
  Fold Change: 0.62 fold
Ovarian Tumor Cells; gene CYR61, Stat3 silencing vs control
  Fold Change: 0.68 fold
Ovarian Tumor Cells; gene DKK1, Stat3 silencing vs control
  Fold Change: 0.72 fold
Ovarian Tumor Cells; gene DUSP1, Stat3 silencing vs control
  Fold Change: 0.74 fold
Ovarian Tumor Cells; gene ETS2, Stat3 silencing vs control
  Fold Change: 0.56 fold
Ovarian Tumor Cells; gene FGF2, Stat3 silencing vs control
  Fold Change: 0.68 fold
Ovarian Tumor Cells; gene FOS, Stat3 silencing vs control
  Fold Change: 0.72 fold
Ovarian Tumor Cells; gene HM OX1, Stat3 silencing vs control
  Fold Change: 1.79 fold
Ovarian Tumor Cells; gene IGFBP3, Stat3 silencing vs control
  Fold Change: 0.45 fold
Ovarian Tumor Cells; gene IL-1B, Stat3 silencing vs control
  Fold Change: 0.55 fold
Ovarian Tumor Cells; gene IL-6, Stat3 silencing vs control
  Fold Change: 0.61 fold
Ovarian Tumor Cells; gene KITLG, Stat3 silencing vs control
  Fold Change: 0.66 fold
Ovarian Tumor Cells; gene NFKBIZ, Stat3 silencing vs control
  Fold Change: 0.65 fold
Ovarian Tumor Cells; gene NQO1, Stat3 silencing vs control
  Fold Change: 0.55 fold
Ovarian Tumor Cells; gene NRP1, Stat3 silencing vs control
  Fold Change: 0.67 fold
Ovarian Tumor Cells; gene PLAUR, Stat3 silencing vs control
  Fold Change: 0.72 fold
Ovarian Tumor Cells; gene PMAIP1, Stat3 silencing vs control
  Fold Change: 0.69 fold
Ovarian Tumor Cells; gene PMEPA1, Stat3 silencing vs control
  Fold Change: 0.71 fold
Ovarian Tumor Cells; gene PRKRA, Stat3 silencing vs control
  Fold Change: 0.68 fold
Ovarian Tumor Cells; gene RASA1, Stat3 silencing vs control
  Fold Change: 0.68 fold
Ovarian Tumor Cells; gene RTN1, Stat3 silencing vs control
  Fold Change: 1.37 fold
Ovarian Tumor Cells; gene SFRP1, Stat3 silencing vs control
  Fold Change: 0.55 fold
Ovarian Tumor Cells; gene SGK1, Stat3 silencing vs control
  Fold Change: 0.68 fold
Ovarian Tumor Cells; gene SPARC, Stat3 silencing vs control
  Fold Change: 0.7 fold
Ovarian Tumor Cells; gene SPP1, Stat3 silencing vs control
  Fold Change: 0.77 fold
Ovarian Tumor Cells; gene STAT3, Stat3 silencing vs control
  Fold Change: 0.23 fold
Ovarian Tumor Cells; gene TCF3, Stat3 silencing vs control
  Fold Change: 0.71 fold
Ovarian Tumor Cells; gene TNFRSF11B, Stat3 silencing vs control
  Fold Change: 0.61 fold
Ovarian Tumor Cells; gene TNFSF10, Stat3 silencing vs control
  Fold Change: 0.7 fold
Ovarian Tumor Cells; gene XBP1, Stat3 silencing vs control
  Fold Change: 0.74 fold
